Laboratory results reported in patent US20190185544A1, “COMPOSITIONS AND METHODS OF MODULATING ABETA PROTEIN” (University of South Florida, priority 2016, published 2019).
Entries after “also recorded” stand apart in the source; their conditions may differ.

Experiments:
Assay type in all cases: cell-based, Chinese hamster
CHO/APPwt cells = test: Aβ production in CHO/APPwt cells, treatment alone (Aβ1-40, 42 ELISA, 82E1 WB); conditions: for Aβ production (Aβ1-40, 42): serum-free medium, 2 h (ELISA) or 16 h (WB)
Protocol: Chinese hamster ovary (CHO) cells overexpressing human wild-type amyloid precursor protein (APPwt) (CHO/APPwt cells) were cultured in 96-well plate at about 2×10^4/well in Dulbecco's modified Eagle's medium (DMEM) with 10% fetal bovine serum (FBS), 1 mM sodium pyruvate and 100 U/mL of penicillin/streptomycin for 18 hours.
CHO/APPwt cells were cultured in 96-well plate (about 2×10^4/well) in serum-free medium and treated with ApoE LDLR, FlagApoE LDLR (SEQ ID NO.: 1 with an N-terminal FLAG tag), BiotinApo LDLR (SEQ ID NO.: 1 with an N-terminal Biotin) and 3 lysinesApoE LDLR (3KApoE LDLR (SEQ ID NO.: 2)) at indicated doses for about 2 hours.
The conditioned media and cell lysates were prepared, and subjected to Aβ ELISA and protein assay.
CHO cells overexpressing human wild-type APP (CHO/APPwt) cells were cultured in 96-well plate at 2×10^4/well in Dulbecco's modified Eagle's medium (DMEM) with 10% fetal bovine serum (FBS), 1 mM sodium pyruvate and 100 U/mL of penicillin/streptomycin for 18 hours. […] 82E1 WB analyses as shown below the Aβ ELISA result histograms. The Aβ ELISA results are representative of three independent experiments with each condition triplicated and presented as mean±SD.
(residues 133-152, SEQ ID NO: 1)] as indicated for 2 and 16 hours (h). The conditioned media and cell lysates were analyzed by Aβ1-40, 42 ELISA (FIG. 10A), 82E1 WB analysis (FIG. 10B) and protein assay, respectively. In addition, (FIG. 10C) CHO/APPwt cells were cultured in 96-well plate (2×10^4/well) in serum-free DMEM and treated with FlagApoE-LBDP, BiotinApoE-LBDP and 3 lysineApoE-LBDP (3KApoE-LBDP) in comparing to ApoE-LBDP at indicated doses for 2 hours (h). […] (SEQ ID NO: 2); […]-[…] (SEQ ID NO: 10); Biotin-[…] (SEQ ID NO: 1 with an N-Terminal Biotin).
CHO cells engineered to express human wild-type APP (CHO/APPwt) or Swedish mutant APP (CHO/APPswe) were obtained. These cells were cultured in 96 or 24 well plates at 4×10^4 or 2×10^5 cells/well, respectively, in Dulbecco's modified Eagle's medium (DMEM) with 10% fetal bovine serum, 1 mM sodium pyruvate and 100 U/mL of penicillin/streptomycin (Invitrogen, Thermo Fisher Scientific). In addition, murine N2a cells transfected with APPwt (N2a/APPwt were obtained), SH-SY5Y cells transfected with APPswe and wild-type SH-SY5Y cells (ATCC, Manassas, Va.) were cultured as previously described^42. Primary hN2TM human neurons (Neuromics, Edina, Minn.) were cultured in hN2TM human neuron culture media and primary HCN2 human neurons (ATCC) were cultured in DMEM with 4 mM L-glutamine adjusted to contain 1.5 g/L sodium bicarbonate, 4.5 g/L glucose, fetal bovine serum (10%).
Aβ1-40, 42 and sAPPα from cell and brain homogenates were detected by Aβ1-40, 42 and sAPPα ELISA kits (IBL-America), strictly following the manufacturer's instructions^43,44.
WB analyses were performed as previously described^43,44. Briefly, 10% bicine/tris gel containing 8 M urea was used for separation of Aβ1-40, 42 species from brain homogenates or CHO cell conditioned media or lysates, followed by transfer to 0.2 μm pore-size nitrocellulose membrane (Bio-Rad, Hercules, Calif.). The membrane was boiled in PBS for 3 to 5 min before blocking to enhance sensitivity and then incubated with 82E1. For all other proteins detected by WB, 10% tris-SDS gels were used. Densitometry analysis was performed as previously described using a FluorS Multiimager with Quantity One™ software 43.

CHO/APPdE1 cells = test: Aβ production in CHO cells expressing APP695 lacking the N-terminal E1 region; conditions: peptides 10 μM or apoE 10 μg/mL, 4 h; compared with CHO/APPwt
Description: CHO cells were also transfected with pCMV6 APP695 or pCMV6 E1 depleted APP695, yielding cells expressing wild type APP695 (CHO/APPwt) or truncated APP695 lacking the N-terminal E1 region (CHO/APPdE1). […] Diagram indicates important domains identified in APP, including N-terminal E1 region (top panel), and APPwt and APPdE1 proteins in cell lysates and conditioned media derived from the transfected CHO cells as determined by WB using 6E10 (middle panels). […] ELISA results are representative of three independent experiments with each condition triplicated and presented as mean±s.d. of Aβs (μg/mg of total intracellular protein). Asterisk indicates P<0.05 compared with the corresponding absence of 22C11, 6H3B5 or 6KApoEp, or with corresponding CHO/APPwt cells, as determined by one-way ANOVA.
Therefore, apoE and ApoEp mediates and 6KApoEp reduces Aβ production by binding to the N-terminal E1 region of APP, but this region of APP is not required for spontaneous Aβ release in the absence of apoE.

p44/42 MAPK = p44/42 MAPK phosphorylation in CHO/APPwt cell lysates (WB); conditions: peptides 10 μM or apoE 10 μg/mL, 0 to 180 min
p38 MAPK = p38 MAPK phosphorylation in CHO/APPwt cell lysates (WB); conditions: peptides 10 μM or apoE 10 μg/mL, 0 to 180 min

Substance | sAPPα secretion (CHO/APPwt cells) | Aβ production (Aβ1-40, 42) (CHO/APPwt cells) | Aβ production in CHO/APPdE1 cells (CHO/APPdE1 cells) | p44/42 MAPK phosphorylation (p44/42 MAPK) | p38 MAPK phosphorylation (p38 MAPK)
ApoE3: human recombinant apolipoprotein E3 protein (BioVision) | decreased sAPPα secretion | markedly promote amyloid β protein (Aβ) production | markedly less Aβ production compared with CHO/APPwt cells | activated both p44/42 and p38 MAPK phosphorylation | activated both p44/42 and p38 MAPK phosphorylation
ApoE4: human recombinant apolipoprotein E4 protein (BioVision) | decreased sAPPα secretion | increased Aβ1-40, 42 production; also recorded: markedly promote amyloid β protein (Aβ) production | markedly less Aβ production compared with CHO/APPwt cells | activated both p44/42 and p38 MAPK phosphorylation | activated both p44/42 and p38 MAPK phosphorylation
